# Measurements as given in ChEMBL document CHEMBL1129300, “Conformationally constrained analogues of diacylglycerol. 12. Ultrapotent protein kinase C ligands based on a chiral 4,4-disubstituted heptono-1,4-lactone template” (J Med Chem, 1996).
# Biological target: Protein kinase C alpha type (Homo sapiens, UniProt P17252)
# Test: Displacement of [3H-20]-PDBU from recombinant Protein kinase C alpha
row,Ki [nM],Compound
1,13,CCCCCCCC/C=C\CCCCCCCC/C=C1\C[C@@](CO)(COC(C)=O)OC1=O
2,12,CCCCCCCC/C=C\CCCCCCCC/C=C1/C[C@@](CO)(COC(C)=O)OC1=O
3,11,CCCCCCCC/C=C\CCCCCCCC/C=C1/C[C@](/C=C/C(=O)OC)(CO)OC1=O
4,20,CCCCCCCC/C=C\CCCCCCCC/C=C1\C[C@](/C=C/C(=O)OC)(CO)OC1=O
